According to patent US6468763B1, “Optical detection of transmembrane potential changes” (Caliper Technologies Corp., priority 1999, dated 2002):

Tested on: CHO cells
Experiment: Voltage dependent quenching of WGA-F1 fluorescence in response to changes in the potassium diffusion potential
Assay type: cell-based, Chinese hamster
Settings: excitation 475 nm
Description: Crystal violet was purchased from Fischer Scientific. Fluorescein labeled wheat germ agglutinin (WGA-F1) was purchased from Sigma Chemical. Valinomycin was purchased from Sigma Chemical Chinese hamster ovary cells (CHO) were grown in Ham's F12 media (Irvine Scientific) with 10% fetal bovine serum and 1% penicillin/streptomycin. Adherent cells were harvested using phosphate buffered saline with 0.5 mM EDTA (Irvine Scientific). Cells were washed in Hank's buffered saline solution (HBSS) containing 20 mM Hepes at pH 7.2. Cells suspended in HBSS at a concentration of 10^6 cells/ml were stained with 2 μg/ml WGA-F1 and 40 nM crystal violet for 15 minutes at room temperature. The cells were washed with HBSS and suspended in HBSS containing 1 μM sulforhodamine 101 (Sigma Chemical). Sulforhodamine 101 was used as a voltage insensitive volume marker to account for possible dilution artifacts. […] Fluorescence measurements on cell suspensions were made at room temperature using a FluoroMax-2 fluorometer (Spex). […]
The cationic quencher will redistribute from the intracellular side of the plasma membrane to the extracellular side as the cell is depolarized. […] The fluorescein fluorescence in the depolarized cells is decreased by 20% compared to the hyperpolarized cells. No difference is seen in sulforhodamine 101 fluorescence.
Octadecyl rhodamine B (R18) was purchased from Molecular Probes. […] Fluorescence measurements on cell suspensions were made at room temperature using a FluoroMax-2 fluorometer (Spex). […]
The cationic quencher redistributes from the intracellular side of the plasma membrane to the extracellular side as the cell is depolarized. […] The fluorescein fluorescence in the depolarized cells is decreased by 3% and the rhodamine fluorescence is increased by 2% compared to the hyperpolarized cells. The observed changes in fluorescein and R18 fluorescence are consistent with the translocation-dependent changes in fluorescence resonance energy transfer.

[1] = CHO cells stained with 2 μg/ml WGA-F1 and 500 nM R18, high potassium vs high sodium buffer, valinomycin

SMILES	decrease of fluorescein fluorescence in the depolarized cells compared to the hyperpolarized cells [1] [%]	increase of rhodamine fluorescence (sensitized emission) in the depolarized cells compared to the hyperpolarized cells [1] [%]	decrease of fluorescein fluorescence in the depolarized cells compared to the hyperpolarized cells (CHO cells stained with 2 μg/ml WGA-F1 and 40 nM crystal violet, high potassium buffer (126 mM K+) vs high sodium buffer (6 mM K+), 5 μM valinomycin) [%]
CCCCCCCCCCCCCCCCCCOC(=O)c1ccccc1-c1c2ccc(=[N+](CC)CC)cc-2oc2cc(N(CC)CC)ccc12.[Cl-] [R18, Octadecyl rhodamine B]	3	2	–
CN(C)c1ccc(C(=C2C=CC(=[N+](C)C)C=C2)c2ccc(N(C)C)cc2)cc1 [crystal violet]	–	–	20
